Source: patent EP0986381B1, “USE OF DITERPENES LIKE HYPOESTOXIDES FOR THE MANUFACTURE OF A MEDICAMENT FOR IMMUNOSUPPRESSION, ANTICANCER AND ANTIVIRAL TREATMENT” (Immune Modulation, Inc., priority 1997, dated 1998)

Assays:
Assay type in all cases: cell-based
Mouse spleen cells = experiment: LPS-induced murine lymphocyte proliferation in vitro; details: all concentrations tested (1.5 µg/mL-50 µg/mL); LPS 5 µg/ml, 48 hours
Procedure: LPS is a B-cell mitogen in mice and it is also known to induce pro-inflammatory cytokines such as TNF-α, IL-6 and IL-1β in both murine and human mononuclear cells (Cunningham, A.J., ed; Understanding Immunology 1978;Academic Press, Inc., New York, USA). Murine lymphocytes were stimulated with LPS in vitro in the absence or presence of varying concentrations of JO-4 (1.5, 2.5, 5.0, 10.0, and 50.0 µg/mL).

[1] = test system: cultured normal human PBMCs; experiment: Toxicity on PHA-activated normal human PBMCs, trypan blue dye exclusion; details: 0.0001 µM - 0.5 µM, 7 days
Procedure: PBMCs from two individuals were co-cultured in the presence of varying concentrations of JO-4 for 5 days. […] Cytotoxic T lymphocytes (CTLs) were generated from one-way MLR in the absence or presence of JO-4 for 5-7 days. At the end of culture, CTLs were harvested and tested in a four hour ^51Cr-release assay against activated lymphocytes which were used as stimulators in the one-way MLR. […] Human PBMCs were cultured with 5 µg/ml LPS in the absence or presence of 1.0 µg/ml JO-4 in 24-well microtiter plates for 24 hours. At the end of culture, supernatants were harvested and tested by EIA for the presence of IL-1β, TNF-α, and IL-6. […] PBMCs from two individuals were co-cultured in the absence or presence of varying concentrations of JO-4A for 5 days. […] Antiviral effects of JO-4 on HSV-2 were determined as described in Figure 16A. • Figure 17A and 17B show the results of toxicity testing of JO-4 and JO-4A on normal, uninfected African green monkey kidney cells (CV-1), respectively. […] Cytotoxicity was determined by colorimetric (MTT) assay.
Peripheral Blood Mononuclear cells (PBMCs): Heparinized venous blood was obtained from healthy adult volunteers and PBMCs were separated by centrifugation over Ficoll-Hypaque (Pharmacia Biotech, Piscataway, NJ). […] Cell viability was assessed by trypan blue dye exclusion test and the cell number was adjusted to required concentration.

[2] = Colorimetric MTT cytotoxicity assay, normal cervical ectoepithelial cells; details: human, crec-ec cells

SMILES	inhibition of LPS-induced proliferation of murine lymphocytes (Mouse spleen cells)	toxic effect on cultured human PBMC [1]	cytotoxicity ([2]; at the IC50 dose for HeLa (between 10 µM and 12.5 µM), read-out: cytotoxic effect)	CC50 at 72 h ([2]; normal cervical ectoepithelial cells, 72 hours, read-out: IC50 (cytotoxicity))
C=C1C(=O)C[C@H]2C[C@@H]3O[C@@]3(C)CC[C@@H]3O[C@@]3(C)C[C@@H](OC(C)=O)[C@H]1C2(C)C [JO-4, hypoestoxide]	more than 50%	–	–	–
C=C1C(=O)CC2CC3OC3(C)CCC3OC3(C)CC(O)C1C2(C)C (stereo not shown) [JO-4A]	–	no toxic effect	6%	> 100 µM
